In PMC9598318, “Latent Tuberculosis: A Promising New Compound to Treat Non-Replicating and Intramacrophagic Mycobacteria” (Biomedicines, 2022):
In brackets after ≈: the same amount, converted by molar mass. Several values for one entry are separate records, joined by “and”; a condition that tells them apart may be missing. Equal entries are not always repeated. Where two headings read alike, the source gives them in different places.

Legend:
[1] = system: Escherichia coli (ATCC 11775); assay: Activity spectrum, microdilution; type: cell-based; settings: 24 h, absorbance 600 nm
[2] = system: Salmonella Typhimurium (ATCC 14028); assay: Activity spectrum, microdilution; type: cell-based; settings: 24 h, absorbance 600 nm
[3] = system: Pseudomonas aeruginosa (ATCC 13388); assay: Activity spectrum, microdilution; type: cell-based; settings: 24 h, absorbance 600 nm
[4] = system: Staphylococcus aureus (ATCC 6538); assay: Activity spectrum, microdilution; type: cell-based; settings: 24 h, absorbance 600 nm
M. tuberculosis = assay: Time-kill curve; type: cell-based, Mycobacterium tuberculosis; settings: MIC and 2× MIC, 15 days
[5] = system: latent tuberculosis infection (LTBI); settings: cited from earlier work; for Efficacy in preventing progression to active tuberculosis infection: LTBI patients, monotherapy, ref Huaman et al. (2019) [28]
[6] = system: MRC-5 (ATCC CCL-171) cells; assay: cells; settings: Homo sapiens
[7] = system: Mycobacterium tuberculosis H37Rv (ATCC 27294), replicating; assay: MIC90 against replicating M. tuberculosis (resazurin microtiter assay, REMA); type: cell-based; settings: 7 days; for MIC90: Mycobacterium tuberculosis, 168 h
[8] = system: MRC-5 (ATCC CCL-171) cells
[9] = system: non-replicating (NRP) M. tuberculosis; assay: LORA, MIC90 against non-replicating M. tuberculosis; type: cell-based, Mycobacterium tuberculosis
Protocol: The LORA method was used to determine the MIC90 of compounds against latent/non-replicating (NRP) mycobacteria. According to Wayne and Sohaskey (2001) [18], under a low-oxygen atmosphere, NRP mycobacteria, containing the plasmid pFCA-ABCDE that encodes a luminescent protein in aerated environments, were plated in a 96-well plate with 100 mL of compounds in a range of 0.39 to 100 μg/mL.

[10] = system: J774A.1 (ATCC TIB-67) cells; assay: Cytotoxicity against macrophage cells (resazurin); type: cell-based, mice; settings: for IC50: Mus musculus
[11] = system: Mycobacterium smegmatis mc2155 (ATCC 700084); assay: MIC90 against M. smegmatis (resazurin); type: cell-based; settings: for Spectrum activity, M. smegmatis: 2 days, resazurin
[12] = system: intramacrophagic M. tuberculosis H37Rv; assay: Intramacrophagic activity (J774A.1 macrophages infected with M. tuberculosis H37Rv, CFU count); type: cell-based, Mycobacterium tuberculosis; settings: 5× MIC (6.15 μM), 3 days of exposure
[13] = Mycobacterium tuberculosis, LORA, low-oxygen
[14] = J774A.1 ATCC TIB-67, 24 h, J774A.1, 24 h
[15] = J774A.1 ATCC TIB-67, 48 h, J774A.1, 48 h
[16] = J774A.1 ATCC TIB-67, 72 h, J774A.1, 72 h

SMILES | Spectrum activity, E. coli [1] [µg/mL] | Spectrum activity, S. typhimurium [2] [µg/mL] | Spectrum activity, P. aeruginosa [3] [µg/mL] | Spectrum activity, S. aureus [4] [µg/mL] | death profile in time-kill curve (bactericidal = 3 log10 CFU/mL decrease) (M. tuberculosis) | Efficacy in preventing progression to active tuberculosis infection [5] [%] | IC50 ([6]; MRC5, 24 h) [µg/mL] | IC50 ([6]; MRC5, 48 h) [µg/mL] | IC50 ([6]; MRC5, 72 h) [µg/mL] | MIC90 [7] | MIC90 [9, 13] | IC50 [10, 14] [µg/mL] | IC50 [10, 15] [µg/mL] | IC50 [10, 16] [µg/mL] | Spectrum activity, M. smegmatis [11] [µg/mL] | other results
CNC(C)C1CCC(N)C(OC2C(N)CC(N)C(OC3OCC(C)(O)C(NC)C3O)C2O)O1 (stereo not drawn) [Gentamicin] | 5.07 ± 0.14 | 1.16 ± 0.38 | 2.02 ± 0.66 | 3.97 ± 2.35 |  |  |  |  |  |  |  |  |  |  |  | 
NNC(=O)c1ccncc1 [Isoniazid] |  |  |  |  | bacteriostatic | 90 | > 100 | > 100 | > 100 | 0.44 µM and 0.06 µg/mL | > 300 µM and > 45 µg/mL | > 100 | > 100 | > 100 |  | TB activation after LTBI treatment ([5]; share of cases, INH monotherapy): 10%; IS (selectivity index) [8]: >1666.66; inhibition of non-replicating bacteria ([9]; LORA assay): non-inhibition; MIC90 ([9]; LORA, low-oxygen): >328.13 µM; IS (selectivity index) [10]: >1666.66
CC1=NN(C(=O)c2ccncc2)C(O)(c2ccccc2)C1 (stereo not drawn) [Hydrazone 14] | >100 | >100 | >100 | >100 |  |  | > 100 | > 100 | > 100 | 1.23 µM and 0.35 µg/mL | 6.31 µM and 1.77 µg/mL | > 100 | 83.3 ± 28.9 (≈ 296 µM) | 81.8 ± 31.5 (≈ 291 µM) | >25.0 | MIC90 Replicating [7]: 1.23 ± 0.53 µM (≈ 0.346 µg/mL); cytotoxicity [8]: no detectable cytotoxicity; IS (selectivity index) ([8]; IC50/MIC90, MRC-5, 24 h): >289.02; IS (selectivity index) ([8]; IC50/MIC90, MRC-5, 48 h): >289.02; IS (selectivity index) ([8]; IC50/MIC90, MRC-5, 72 h): >289.02; growth inhibition of M. smegmatis [11]: unable to inhibit the mycobacteria growth; intramacrophagic inhibition (log reduction vs untreated) [12]: 0.5 log10 CFU/mL; MIC90 Non-Replicating ([9]; LORA, low-oxygen): 6.31 ± 5.72 µM (≈ 1.78 µg/mL); IS (selectivity index) ([10]; IC50/MIC90, J774A.1, 24 h): >289.02; IS (selectivity index) ([10]; IC50/MIC90, J774A.1, 48 h): 240.88; IS (selectivity index) ([10]; IC50/MIC90, J774A.1, 72 h): 236.46
CO[C@H]1/C=C/O[C@@]2(C)Oc3c(C)c(O)c4c(O)c(c(/C=N/N5CCN(C)CC5)c(O)c4c3C2=O)NC(=O)/C(C)=C\C=C\[C@H](C)[C@H](O)[C@@H](C)[C@@H](O)[C@@H](C)[C@H](OC(C)=O)[C@@H]1C [Rifampicin] |  |  |  |  | bacteriostatic | ~90 |  |  |  | 0.05 µM and 0.04 µg/mL | < 0.36 µM and < 0.3 µg/mL |  |  |  | 2.4 ± 1.5 | 
